Results taken from US8354428B2, “Solid state forms of laquinimod and its sodium salt” (Actavis Group PTC EHF, priority 2008, dated 2013).

Legend:
Assay type in all cases: physicochemical
[1] = Bulk density method of analysis; conditions: about 10 g sample in 25 mL measuring cylinder
Method: (§1) The X-Ray powder diffraction was measured by an X-ray powder diffractometer equipped with a Cu-anode (λ=1.54 Angstrom), X-ray source operated at 40 kV, 40 mA and a Ni filter is used to strip K-beta radiation. Two-theta calibration is performed using an NIST SRM 1976, Corundum standard. The sample was analyzed using the following instrument parameters: measuring range=3-45° 20; step width=0.01579°; and measuring time per step=0.11 second. Infra-Red Spectroscopy (FT-IR): FT-IR spectroscopy was carried out with a Perkin Elmer Spectrum 100 series spectrometer. For the production of the KBr compacts approximately 2 mg of sample was powdered with 200 mg of KBr. The spectra were recorded in transmission mode ranging from 3800 to 450 cm^−1. Differential Scanning Calorimetry (DSC): DSC (Differential Scanning calorimetry) measurements were performed with a Differential Scanning calorimeter (Perkin Elmer diamond DSC) at a scan rate of 10° C. per minute. Bulk Density Method of Analysis About 10 g of sample was placed in a 25 mL measuring cylinder and measured the volume using the following formula: Bulk density=Weight of the sample (g)/Volume of the sample (mL) Tap Density Method of Analysis

[2] = Tap density method of analysis (Sotax tapping instrument, USP II); conditions: about 10 g sample, tapped to constant volume
Method: About 10 g of sample was placed in a 25 mL measuring cylinder and measured the initial volume. The measuring cylinder was kept in a Sotax Tapping instrument (USP II) and measured the volume of the sample every 50 tappings until a constant volume is obtained using the following formula: Tap Density=Weight of the sample (g)/constant Volume of the sample after tapping (mL)

[3] = Particle size distribution by laser diffraction (Malvern Master Sizer 2000); conditions: 90 volume-percent of particles below this diameter
Source text: As used herein, “Particle Size Distribution (P.S.D)” means the cumulative volume size distribution of equivalent spherical diameters as determined by laser diffraction in Malvern Master Sizer 2000 equipment or its equivalent. As used herein, DX means that X percent of the particles have a diameter less than a specified diameter D. Thus, a D90 or d(0.9) of less than 300 microns means that 90 volume-percent of the particles in a composition have a diameter less than 300 microns.

[4] = Polymorphic stability on storage in LDPE bag, checked by P-XRD
Method: as §1
Laquinimod sodium crystalline Form A1 was prepared according to the process exemplified in Example 2 and was packed in a self-sealing low-density polyethylene (LDPE) bag. […]

CCN(C(=O)c1c(O)c2c(Cl)cccc2n(C)c1=O)c1ccccc1.[Na] [laquinimod sodium crystalline Form A1, N-ethyl-N-phenyl-1,2-dihydro-4-hydroxy-5-chloro-1-methyl-2-oxoquinoline-3-carboxamide sodium]
Bulk density [1]: 0.333 g/mL | Tapped density [2]: 0.476 g/mL | Particle size distribution d(0.9) [3]: 26.3 microns | Polymorphic stability (maintenance of the original P-XRD pattern) ([4]; stored 3 months at about 40±2° C., relative humidity about 75±5%): retain its polymorphic form | Polymorphic stability (maintenance of the original P-XRD pattern) ([4]; stored 6 months at 25±2° C., relative humidity about 60±5%): retain its polymorphic form
